These compounds were tested against T1, Estrogen sulfotransferase (Sus scrofa, UniProt Q95MF8) (assay: Compound was tested for inhibition of porcine endometrial estrogen sulfotransferase). Details: read-out: Ki app.
T1 sequence (Q95MF8 whole entry): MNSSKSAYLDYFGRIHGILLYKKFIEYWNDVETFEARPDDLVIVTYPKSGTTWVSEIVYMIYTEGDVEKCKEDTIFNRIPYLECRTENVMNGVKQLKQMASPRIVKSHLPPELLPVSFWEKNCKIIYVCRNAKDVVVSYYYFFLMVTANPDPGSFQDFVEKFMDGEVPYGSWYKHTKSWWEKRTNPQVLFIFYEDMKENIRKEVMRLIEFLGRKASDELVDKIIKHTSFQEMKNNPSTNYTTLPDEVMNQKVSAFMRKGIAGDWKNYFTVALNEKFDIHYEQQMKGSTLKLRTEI

Compound | Ki
C[C@]12CC[C@@H]3c4cc([N+](=O)[O-])ccc4CC[C@H]3[C@@H]1CC[C@@H]2O | 9.76 µM
C[C@]12CC[C@@H]3c4cccc([N+](=O)[O-])c4CC[C@H]3[C@@H]1CC[C@@H]2O | 2.43 µM
C[C@]12CC[C@@H]3c4cc(F)ccc4CC[C@H]3[C@@H]1CCC2O (stereo not given in full) | 13.6 µM
C[C@]12CC[C@@H]3c4cccc(N)c4CC[C@H]3[C@@H]1CCC2=O | 10.5 µM
C[C@]12CC[C@@H]3c4cc(N)ccc4CC[C@H]3[C@@H]1CCC2O (stereo not given in full) | 7.51 µM
C[C@]12CC[C@@H]3c4cccc(F)c4CC[C@H]3[C@@H]1CCC2=O | 14.8 µM
C[C@]12CC[C@@H]3c4cccc(N)c4CC[C@H]3[C@@H]1CCC2O (stereo not given in full) | 11.9 µM
C[C@]12CC[C@@H]3c4ccccc4CC[C@H]3[C@@H]1CCC2=O | 25.1 µM
C[C@]12CC[C@@H]3c4cccc(F)c4CC[C@H]3[C@@H]1CC[C@@H]2O | 10.2 µM
C[C@]12CC[C@@H]3c4ccccc4CC[C@H]3[C@@H]1CC[C@@H]2O | 16.3 µM

From ChEMBL document CHEMBL1123509, “In vitro inhibition of estrogen sulfoconjugation by some 2- and 4-substituted estra-1,3,5(10)-trien-17 beta-ols1a” (J Med Chem, 1986)
